Test results taken from US20040121947A1, “Compounds which inhibit beta-secretase activity and methods of use thereof” (Oklahoma Medical Research Foundation, priority 2000, published 2004).
Where two headings read alike, the source gives them in different places.

Biological target: T1, memapsin 2 (Homo sapiens, UniProt P56817)
T1 construct: pET-11 vector-derived residues 1-15 of promemapsin 2-T1 (N, cleaved yes); made in house; host or cells: E. coli
Experiment: Inhibition of memapsin 2 proteolytic activity, fluorogenic substrate FS-2
Type: biochemical
Details: for Vi/Vo: ratio of initial cleavage velocities of FS-2 with/without compound, enzyme and inhibitor concentrations equal (e.g., about 80 nM, 100 nM)
Experimental: Ki is the inhibition equilibrium constant which indicates the ability of compounds to inhibit the β-secretase activity of memapsin 2 and memapsin 1. […] The K1 value is independent of the substrate, and converted from Ki apparent.
The Vi/Vo values depicted in Table 1 were determined at conditions under which the enzyme and inhibitor concentrations were equal (e.g., about 80 nM, 100 nM).
The relationship of Ki (independent of substrate concentration) to Kiapp is a function of substrate concentration in the assay and the Km for cleavage of the substrate by either memapsin 1 or memapsin 2 by the relationship:
The spontaneously activated memapsin 2 was employed in assays to assess the inhibition of memapsin 2 relative to memapsin 1 by compounds of the invention and in some crystallization studies.
An aliquot of the inhibitor of known concentration in DMSO was diluted into 1.8 ml 0.1 M NaOAc, pH 4.0. DMSO and added to a final concentration of 10% (v/v), and memapsin 2 (final concentration of 80 nM), followed by a 20 minute equilibration at 37° C. Compounds were evaluated for the ability to inhibit memapsin 1 and memapsin 2 at concentrations between about 10 nM and about 10 μm of inhibitor.

[1] = Ki, [I] < 100, memapsin 2, [I] < 100 (nM)
[2] = memapsin 2, apparent Ki in presence of substrate FS-2, read-out: Ki app
[3] = memapsin 2, independent of substrate, converted from Ki apparent, read-out: Ki
[4] = memapsin 2, apparent Ki in presence of substrate FS-2
[5] = memapsin 2, independent of substrate, converted from Ki apparent

T1 sequence (P56817 41-454 limits assumed): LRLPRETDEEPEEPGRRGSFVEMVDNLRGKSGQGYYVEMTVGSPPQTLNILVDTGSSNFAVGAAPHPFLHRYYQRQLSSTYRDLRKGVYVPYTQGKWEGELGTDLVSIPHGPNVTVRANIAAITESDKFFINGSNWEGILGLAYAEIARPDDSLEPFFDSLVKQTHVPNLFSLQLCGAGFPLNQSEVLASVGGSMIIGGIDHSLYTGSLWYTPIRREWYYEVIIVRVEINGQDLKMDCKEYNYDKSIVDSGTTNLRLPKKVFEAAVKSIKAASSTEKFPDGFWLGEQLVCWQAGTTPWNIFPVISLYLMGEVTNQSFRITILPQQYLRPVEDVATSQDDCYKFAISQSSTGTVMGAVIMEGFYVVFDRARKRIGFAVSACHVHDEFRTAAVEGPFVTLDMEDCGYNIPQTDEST

| Structure (SMILES) | Ki [1] | Ki [2] | Ki [3] | Vi/Vo | Ki app [4] | Ki [5] |
| --- | --- | --- | --- | --- | --- | --- |
| CSCC[C@H](NC(=O)[C@@H](NC(=O)OC(C)(C)C)C(C)C)C(=O)N[C@@H](CC(C)C)[C@@H](O)C[C@@H](C)C(=O)N[C@@H](CC(C)C)C(=O)N1CCN(C)CC1 [MMI-184] | 64 nM | 194 nM | 121 nM | 0.6 |  |  |
| CSCC[C@H](NC(=O)[C@H](CC(C)C)NC(=O)OC(C)(C)C)C(=O)N[C@@H](CC(C)C)[C@@H](O)C[C@@H](C)C(=O)N[C@@H](CC(C)C)C(=O)NC(C)C [MMI-158] |  | 0.524 nM | 0.33 nM | 0.08 |  |  |
| CCC[C@H](C[C@H](O)[C@H](CC(C)C)NC(=O)[C@H](CSC)NC(=O)O[C@H]1CCOC1)C(=O)N[C@H](C(=O)NCc1ccccc1)C(C)C [MMI-029] |  | 1700 nM | 1060 nM |  |  |  |
| CSCC[C@H](NC(=O)C(Cn1nc(C)cc1C)C(C)C)C(=O)N[C@@H](CC(C)C)[C@@H](O)C[C@@H](C)C(=O)N[C@H](C(=O)NCc1ccco1)C(C)C (stereo partly shown) [MMI-225] |  | 41 nM | 25.7 nM |  |  |  |
| CSCC[C@@H](COC(=O)N[C@@H](CC(C)C)[C@@H](O)C[C@@H](C)C(=O)N[C@H](C(=O)NCc1ccccc1)C(C)C)NC(=O)[C@@H](NC(=O)OC(C)(C)C)C(C)C [MMI-114] |  | 441 nM | 276 nM |  |  |  |
| Cc1ccc(S(=O)(=O)N[C@@H](CC(C)C)C(=O)N[C@@H](CCS(C)(=O)=O)C(=O)N[C@@H](CC(C)C)[C@@H](O)C[C@@H](C)C(=O)N[C@H](C(=O)NCc2ccccc2)C(C)C)cc1 [MMI-090] |  | 311 nM | 194 nM |  |  |  |
| CSCC[C@H](NC(=O)[C@@H](NC(=O)OC(C)(C)C)C(C)C)C(=O)N[C@@H](CC(C)C)[C@@H](O)C[C@@H](C)NC(=O)[C@H](NC(=O)OCc1ccccc1)C(C)C [MMI-162] |  |  |  | 0.98 |  |  |
| C=CC[C@H](C[C@H](O)[C@H](CC(C)C)NC(=O)[C@H](CC(N)=O)NC(=O)OC(C)(C)C)C(=O)N[C@H](C(=O)NCc1ccccc1)C(C)C [MMI-010] |  | 29400 nM | 18700 nM |  |  |  |
| Cc1cc(C)n(CCOC(=O)N[C@@H](CCN2CCOCC2)C(=O)N[C@@H](CC(C)C)[C@@H](O)C[C@@H](C)C(=O)N[C@@H](CC(C)C)C(=O)NC(C)C)n1 [MMI-223] |  | 8420 nM | 5280 nM |  |  |  |
| CSCC[C@H](NC(=O)[C@H](C(C)C)N1CCCNC1=O)C(=O)N[C@@H](CC(C)C)[C@@H](O)C[C@@H](C)C(=O)N[C@@H](CC(C)C)C(=O)NCC(C)C [MMI-198] |  | 756 nM | 473 nM |  |  |  |
| CSCC[C@H](NC(=O)c1cccc(O)c1O)C(=O)N[C@@H](CC(C)C)[C@@H](O)C[C@@H](C)C(=O)N[C@@H](CC(C)C)C(=O)NC(C)C [MMI-200] |  | 1530 nM | 956 nM |  |  |  |
| CC(C)C[C@H](NC(=O)[C@H](CS(C)(=O)=O)NC(=O)OCc1ccncc1)[C@@H](O)C[C@@H](C)C(=O)N[C@H](C(=O)NCc1ccccc1)C(C)C [MMI-144] |  |  |  | 1.03 |  |  |
| CC(C)C[C@H](NC(=O)[C@@H](NC(=O)[C@@H](NC(=O)OC(C)(C)C)C(C)C)[C@@H]1CCOC1)[C@@H](O)C[C@@H](C)C(=O)N[C@H](C(=O)NCc1ccccc1)C(C)C [MMI-020] |  | 1610 nM | 1000 nM |  |  |  |
| CC(C)C[C@H](NC(=O)[C@H](CCS(C)(=O)=O)NC(=O)[C@@H](NC(=O)OC(C)(C)C)C(C)C)[C@@H](O)C[C@@H](C)C(=O)N1CCC[C@H]1C(=O)NCc1ccccc1 [MMI-045] |  |  |  |  | N.I. | N.I. |
| CSCC[C@H](NC(=O)[C@@H](NC(=O)OC(C)(C)C)C(C)C)C(=O)N[C@@H](CC(C)C)[C@@H](O)CN(C)C(=O)[C@H](NC(=O)OCc1ccccc1)C(C)C [MMI-061] |  |  | 9.66e+06 nM |  |  |  |
| CCCCNC(=O)[C@@H](NC(=O)[C@H](C)C[C@H](O)[C@H](CC1CCCC1)NC(=O)[C@H](CCSC)NC(=O)OCn1nc(C)cc1C)C(C)C [MMI-172] |  | 447 nM | 279 nM | 1.05 |  |  |
| CC(C)C[C@H](NC(=O)[C@H](CCS(C)(=O)=O)NC(=O)OC(C)(C)C)[C@@H](O)C[C@@H](C)C(=O)N[C@@H](C)C(=O)NCc1ccccc1 [MMI-007] |  | 49900 nM | 31700 nM |  |  |  |
| CSCC[C@H](NC(=O)OCCn1nc(C)c2c1CCC2)C(=O)N[C@@H](CC(C)C)[C@@H](O)C[C@@H](C)C(=O)N[C@@H](CC(C)C)C(=O)NC(C)C [MMI-220] |  | 4490 nM | 2810 nM |  |  |  |
| CSCC[C@H](NC(=O)[C@H](C)NC(=O)[C@H](C)C[C@H](O)[C@H](CC(C)C)NC(=O)OC(C)(C)C)C(=O)NCc1ccccc1 [MMI-002] |  |  | 274000 nM |  |  |  |
| COc1cccc(C(=O)N[C@@H](CCSC)C(=O)N[C@@H](CC(C)C)[C@@H](O)C[C@@H](C)C(=O)N[C@@H](CC(C)C)C(=O)NC(C)C)c1OC [MMI-206] | 292 nM | 1210 nM | 758 nM |  |  |  |

| Structure (SMILES) | Ki [1] | Ki [2] | Ki [3] | Vi/Vo | Ki app [4] | Ki [5] |
| --- | --- | --- | --- | --- | --- | --- |
| CSC[C@H](NC(=O)[C@@H](NC(=O)OC(C)(C)C)C(C)C)C(=O)N[C@@H](CC(C)C)[C@@H](O)C[C@@H](C)C(=O)N[C@H](C(=O)NCc1ccccc1)C(C)C [MMI-025] |  | 65.5 nM | 40.9 nM |  |  |  |
| CSCC[C@H](NC(=O)OC(C)(C)Cn1nc(C)cc1C)C(=O)N[C@@H](CC(C)C)[C@@H](O)C[C@@H](C)C(=O)N[C@@H](CC(C)C)C(=O)NC(C)C [MMI-219] |  | 1420 nM | 889 nM |  |  |  |
| CCCCNC(=O)[C@H](CC(C)C)NC(=O)[C@H](C)C[C@H](O)[C@H](CC(C)C)NC(=O)[C@H](CCSC)NC(=O)[C@H](CC(C)C)NC(=O)OC(C)(C)C [MMI-160] |  | 4.15 nM | 2.59 nM | 0.19 |  |  |
| CSCC[C@H](NC(=O)[C@@H](NC(=O)OC(C)(C)C)C(C)C)C(=O)N[C@@H](CC(C)C)[C@@H](O)C[C@@H](C)NC(=O)[C@@H](NC(=O)OCc1ccccc1)C(C)C [MMI-163] |  |  |  | 0.57 |  |  |
| C=CC[C@H](C[C@H](O)[C@H](CC(C)C)NC(=O)[C@H](CC(N)=O)NC(=O)[C@@H](NC(=O)OC(C)(C)C)C(C)C)C(=O)N[C@H](C(=O)NCc1ccccc1)C(C)C [MMI-021] |  | 112 nM | 70.1 nM |  |  |  |
| CSCC[C@H](NC(=O)[C@H](CC(C)C)NS(=O)(=O)c1ccc(C)cc1)C(=O)N[C@@H](CC(C)C)[C@@H](O)C[C@@H](C)C(=O)N[C@H](C(=O)NCc1ccccc1)C(C)C [MMI-089] |  | 315 nM | 197 nM |  |  |  |
| CSCC[C@H](NC(=O)NCc1ccco1)C(=O)N[C@@H](CC(C)C)[C@@H](O)C[C@@H](C)C(=O)N[C@H](C(=O)NCc1ccccc1)C(C)C [MMI-115] |  | 378 nM | 236 nM | 1.04 |  |  |
| CSCC[C@H](NC(=O)[C@@H](NC(=O)OC(C)(C)C)C(C)C)C(=O)N[C@@H](CC(C)C)[C@@H](O)C[C@@H](C)C(=O)N[C@H](CO)C(C)C [MMI-042] |  | 36500 nM | 22800 nM |  |  |  |
| CC(C)C[C@H](NC(=O)OC(C)(C)C)C(=O)N[C@@H](CCS(C)(=O)=O)C(=O)N[C@@H](CC(C)C)[C@@H](O)C[C@@H](C)C(=O)N[C@H](C(=O)NCc1ccccc1)C(C)C [MMI-071] |  | 1.9 nM | 1.18 nM |  |  |  |
| CCCCNC(=O)[C@@H](NC(=O)C(C)(C)C[C@H](O)[C@H](CC(C)C)NC(=O)[C@H](CCSC)NC(=O)OCn1nc(C)cc1C)C(C)C [MMI-218] | 226 nM | 1800 nM | 1120 nM |  |  |  |
| C=C(C[C@H](O)[C@H](CC(C)C)NC(=O)[C@H](CCSC)NC(=O)[C@@H](NC(=O)OC(C)(C)C)C(C)C)C(=O)N[C@H](C(=O)NCc1ccccc1)C(C)C [MMI-145] |  |  |  | 0.84 |  |  |
| CSCC[C@H](NC(=O)OCn1nc(C)cc1C)C(=O)N[C@@H](CC(C)C)[C@@H](O)C[C@@H](C)C(=O)N[C@@H](CC(C)C)C(=O)NCC(C)C [MMI-166] |  | 108 nM | 67.4 nM | 0.76 |  |  |
| CSCC[C@H](NC(=O)[C@@H](NC(=O)OC(C)(C)C)C(C)C)C(=O)N[C@@H](CC(C)C)[C@@H](O)C[C@@H](C)C(=O)N[C@@H](C(C)C)C1CC(Cc2ccccc2)CC(=O)O1 (stereo partly shown) [MMI-141] |  | 30000 nM | 18800 nM |  |  |  |
| CSCC[C@H](NC(=O)CCn1nc(C)cc1C)C(=O)N[C@@H](CC(C)C)[C@@H](O)C[C@@H](C)C(=O)N[C@H](C(=O)NCC(C)C)C(C)C [MMI-194] |  | 62.3 nM | 38.9 nM |  |  |  |
| CSCC[C@H](NC(=O)OCc1ccc(CN(C)C)o1)C(=O)N[C@@H](CC(C)C)[C@@H](O)C[C@@H](C)C(=O)N[C@H](C(=O)NCc1ccccc1)C(C)C [MMI-127] |  | 6840 nM | 4280 nM |  |  |  |
| CSCC[C@H](NC(=O)[C@@H](NC(=O)OC(C)(C)C)C(C)C)C(=O)N[C@@H](CC(C)C)[C@@H](O)C[C@@H](CC(N)=O)C(=O)N[C@H](C(=O)NCc1ccccc1)C(C)C [MMI-038] |  | 106 nM | 66.2 nM | 0.4 |  |  |
| CSCC[C@H](NC(=O)OCCn1nc(C)cc1C)C(=O)N[C@@H](CC(C)C)[C@@H](O)C[C@@H](C)C(=O)N[C@@H](CC(C)C)C(=O)NC(C)C [MMI-203] |  | 361 nM | 225 nM |  |  |  |
| CSCC[C@H](NC(=O)[C@@H](NC(=O)OC(C)(C)C)C(C)C)C(=O)N[C@@H](CC(C)C)[C@@H](O)C[C@@H](C)C(=O)N[C@@H]1c2ccccc2C[C@@H]1O [MMI-053] |  |  |  |  | N.I. | N.I. |
| CC(C)C[C@H](NC(=O)[C@H](CC(N)=O)NC(=O)[C@@H](NC(=O)OC(C)(C)C)C(C)C)[C@@H](O)C[C@@H](C)C(=O)N[C@H](C(=O)NCc1ccccc1)C(C)C [MMI-012] |  | 9.1 nM | 5.68 nM |  |  |  |
